Measurements taken from BindingDB's records for doi:10.7270/Q27W69N8 (Srmlsc, 2009).
“And” between values parts separate entries of the source, which are not always exact repeats. Equal values may be shown once. Where a name gives a salt, the structure may show the parent alone.

Biological target: T1, M17 leucyl aminopeptidase (Plasmodium falciparum (isolate 3D7), UniProt Q8IL11)
T1 sequence (Q8IL11 whole entry): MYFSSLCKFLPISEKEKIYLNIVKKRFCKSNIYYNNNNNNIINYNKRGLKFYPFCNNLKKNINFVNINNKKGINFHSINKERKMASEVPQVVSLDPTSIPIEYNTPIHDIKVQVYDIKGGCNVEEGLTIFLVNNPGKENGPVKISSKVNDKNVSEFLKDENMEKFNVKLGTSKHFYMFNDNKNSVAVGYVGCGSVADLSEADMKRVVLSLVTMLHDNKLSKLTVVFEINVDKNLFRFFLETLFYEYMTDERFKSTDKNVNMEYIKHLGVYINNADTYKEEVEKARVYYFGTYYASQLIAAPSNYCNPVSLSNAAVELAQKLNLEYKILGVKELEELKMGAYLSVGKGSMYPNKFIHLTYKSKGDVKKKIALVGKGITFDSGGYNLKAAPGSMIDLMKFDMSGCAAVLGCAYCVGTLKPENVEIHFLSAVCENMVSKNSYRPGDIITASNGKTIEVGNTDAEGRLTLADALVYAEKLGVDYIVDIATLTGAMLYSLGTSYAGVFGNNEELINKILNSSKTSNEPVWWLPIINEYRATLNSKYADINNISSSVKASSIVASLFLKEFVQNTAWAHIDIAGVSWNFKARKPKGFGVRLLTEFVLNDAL
Test: P. falciparum M17LAP inhibitors, primary screen, biochemical, fluorogenic H-Leu-NHMec substrate, 1536-well (AID 1619)

IC50 | Compound
55.5 µM | COc1cc(CN=Nc2ccc(Cl)c(C(=O)O)c2)ccc1OC(=O)c1cccs1
1 µM | C=CCOc1c(OC)cc(CN=Nc2cccc(C(=O)O)c2)c(Br)c1Br
35 µM | COc1ccc2sc(-n3c(O)c4c(c3O)CC(C)=CC4)nc2c1
64.5 µM | N#CC1C(=N)Oc2[nH]nc(-c3ccccc3)c2C1c1ccsc1 (stereo not drawn)
30.1 µM and 27.4 µM | C=C(c1ccc(OC)cc1)c1sc(=S)n(CCC(=O)O)c1O
3.14 µM | Cc1[nH][nH]c(=O)c1CCC(=O)NN=Cc1ccccc1[N+](=O)[O-]
13.3 µM | CC(C)(C)c1ccc(CN=Nc2ccc(C(=O)O)cc2)cc1
51.4 µM | Cc1[nH][nH]c(=O)c1CCC(=O)NN=CC=Cc1ccccc1
80.6 µM | CC(=NNC(=O)CCc1c(C)[nH][nH]c1=O)c1ccc([N+](=O)[O-])cc1
103 µM | O=C(Cc1cc(=O)[nH][nH]1)NN=Cc1cccc(Cl)c1Cl
52.6 µM | Cc1[nH][nH]c(=O)c1CCC(=O)NN=Cc1ccc(Cl)cc1
10.9 µM | C=c1cc2[nH]c(=O)c(=Cc3cccn3CCCOc3ccc(OC)cc3)c(=N)n2o1
69.2 µM | Cc1[nH][nH]c(=O)c1CCC(=O)NN=Cc1ccco1
15 µM | Cc1[nH][nH]c(=O)c1CCC(=O)NN=Cc1ccc(Cl)c(Cl)c1
8.97 µM | CCOc1ccccc1-n1c(O)cc(Sc2nnc(-c3ccccc3)[nH]2)c1O [1-(2-ethoxyphenyl)-3-[(5-phenyl-4H-1,2,4-triazol-3-yl)thio]-2,5-pyrrolidinedione]
6.03 µM | Cc1ccc(Nc2nnc(SCC(=O)C(C#N)c3nc4ccccc4[nH]3)s2)c(C)c1 (stereo not drawn) [2-(1,3-dihydrobenzimidazol-2-ylidene)-4-[[5-(2,4-dimethylanilino)-1,3,4-thiadiazol-2-yl]thio]-3-oxobutanenitrile]
52.8 µM | CC(C=NNC(=O)Cc1c(C)[nH][nH]c1=O)=Cc1ccccc1 [2-(3-methyl-5-oxidanylidene-1,4-dihydropyrazol-4-yl)-N-[[(E)-2-methyl-3-phenyl-prop-2-enylidene]amino]ethanamide]
6.24 µM | CN1C(=O)/C(=C/c2ccc(-c3ccccc3[N+](=O)[O-])o2)S/C1=N/c1ccc(Cl)c(C(=O)O)c1 [2-Chloro-5-[3-methyl-5-[1-[5-(2-nitro-phenyl)-furan-2-yl]-meth-(Z)-ylidene]-4-oxo-thiazolidin-(2Z)-ylideneamino]-benzoic acid]
16.1 µM | COc1ccc(NC(=O)CSc2cc(O)n(-c3ccc4c(c3)OCCO4)c2O)cc1 [2-[1-(2,3-dihydro-1,4-benzodioxin-6-yl)-2,5-bis(oxidanylidene)pyrrolidin-3-yl]sulfanyl-N-(4-methoxyphenyl)ethanamide]
20.3 µM | COc1ccc(CN=Nc2nc(O)c(CC(=O)O)s2)cc1OCc1ccc(Cl)cc1 [2-[2-[2-[[3-[(4-chlorophenyl)methoxy]-4-methoxy-phenyl]methylidene]hydrazinyl]-4-oxidanylidene-1,3-thiazol-5-yl]ethanoic acid]
78.9 µM | O=NCc1cn(CC(=O)N2CCOCC2)c2ccccc12 [2-[3-(hydroxyiminomethyl)indol-1-yl]-1-morpholin-4-ylethanone]
11.4 µM | Cc1ccc(/N=C2/S/C(=C\c3cn(CC(=O)O)c4ccccc34)C(=O)N2C)cc1 [2-[3-[(Z)-[3-methyl-2-(4-methylphenyl)imino-4-oxo-5-thiazolidinylidene]methyl]-1-indolyl]acetic acid]
18.9 µM | C=CCN1C(=O)/C(=C/c2ccc(OCC(=O)O)cc2)SC1=Nc1nccs1 [2-[4-[(Z)-[4-oxidanylidene-3-prop-2-enyl-2-(1,3-thiazol-2-ylimino)-1,3-thiazolidin-5-ylidene]methyl]phenoxy]ethanoic acid]
129 µM | O=C(CSc1n[nH]c(=O)[nH]c1=O)NN=Cc1ccccc1O [2-[(3,5-dioxo-2,3,4,5-tetrahydro-1,2,4-triazin-6-yl)thio]-N'-(2-hydroxybenzylidene)acetohydrazide]

IC50 | Compound
48.8 µM | COc1cc(CN=Nc2ccc(Cl)c(C(=O)O)c2)ccc1OC(=O)c1ccco1 [2-chloro-5-[2-[[4-[2-furanyl(oxo)methoxy]-3-methoxyphenyl]methylidene]hydrazinyl]benzoic acid]
23.6 µM | CCOc1ccc(-n2c(O)cc(SCCN)c2O)cc1 [3-(2-Amino-ethylsulfanyl)-1-(4-ethoxy-phenyl)-pyrrolidine-2,5-dione]
12 µM | CCCOc1ccc(-n2c(O)cc(SCCN)c2O)cc1 [3-(2-aminoethylthio)-1-(4-propoxyphenyl)pyrrolidine-2,5-dione;hydrochloride]
57.2 µM | COc1ccccc1C=CC=NNC(=O)CCc1c(C)[nH][nH]c1=O [3-(3-Methyl-5-oxo-4,5-dihydro-1H-pyrazol-4-yl)-propionic acid [(E)-3-(2-methoxy-phenyl)-prop-2-en-(E)-ylidene]-hydrazide]
36.6 µM | CC(=NNC(=O)CCc1c(C)[nH][nH]c1=O)c1ccccc1 [3-(3-methyl-5-oxidanylidene-1,4-dihydropyrazol-4-yl)-N-(1-phenylethylideneamino)propanamide]
120 µM | C=c1[nH]n(CCC#N)c(=O)c1=Cc1ccc(N(C)C)cc1 [3-[(4E)-4-[[4-(dimethylamino)phenyl]methylidene]-3-methyl-5-oxo-1-pyrazolyl]propanenitrile]
84.3 µM | O=C1N=c2ccccc2=C1NNc1ccc(C(=O)O)cc1 [4-[2-(2-oxidanylideneindol-3-yl)hydrazinyl]benzoic acid]
23.4 µM | COc1ccc(CN=Nc2ccc(C(=O)O)cc2)cc1Br [4-[2-[(3-bromo-4-methoxyphenyl)methylidene]hydrazinyl]benzoic acid]
13.9 µM | Cc1noc(NS(=O)(=O)c2ccc(N=CCC(=O)c3ccc4c(c3)OCO4)cc2)c1C [4-[[(Z)-3-(1,3-benzodioxol-5-yl)-3-oxoprop-1-enyl]amino]-N-(3,4-dimethyl-5-isoxazolyl)benzenesulfonamide]
12.7 µM | Cc1cc(CN=Nc2ccc([N+](=O)[O-])cn2)c(C)n1-c1ccc(C(=O)O)cc1 [4-{2,5-dimethyl-3-[2-(5-nitro-2-pyridinyl)carbonohydrazonoyl]-1H-pyrrol-1-yl}benzoic acid]
16.7 µM | O=C1CCCC2=Nc3[nH]c(=S)[nH]c(=O)c3C(c3ccc(Br)cc3)C12 (stereo not drawn) [5-(4-bromophenyl)-2-thioxo-2,3,5,8,9,10-hexahydropyrimido[4,5-b]quinoline-4,6(1H,7H)-dione]
16.4 µM | O=NCc1ccc(OCc2ccccc2)c(C(=O)O)c1 [5-(hydroxyiminomethyl)-2-phenylmethoxybenzoic acid]
66.6 µM | N#CC1C(=N)Oc2nc(-c3ccccc3)[nH]c2C1c1cccnc1 (stereo not drawn) [5-amino-2-phenyl-7-pyridin-3-yl-3,7-dihydropyrano[2,3-d]imidazole-6-carbonitrile]
1.77 µM | Cc1ccc(SCc2cc(=O)[nH][nH]2)cc1 [5-p-Tolylsulfanylmethyl-2,4-dihydro-pyrazol-3-one]
94.3 µM | N#CC1C(=N)Oc2[nH]nc(-c3ccc(F)cc3)c2C1c1ccncc1 (stereo not drawn) [6-amino-3-(4-fluorophenyl)-4-pyridin-4-yl-2,4-dihydropyrano[2,3-c]pyrazole-5-carbonitrile]
25.8 µM | Cc1ccc(-c2n[nH]c3c2C(c2cccnc2)C(C#N)C(=N)O3)cc1 (stereo not drawn) [6-amino-3-(4-methylphenyl)-4-pyridin-3-yl-1,4-dihydropyrano[2,3-c]pyrazole-5-carbonitrile]
91 µM | Cc1ccc(SCc2n[nH]c3c2C2(CCSCC2)C(C#N)C(=N)O3)cc1 (stereo not drawn) [6-amino-3-[(4-methylphenyl)sulfanylmethyl]spiro[2H-pyrano[2,3-c]pyrazole-4,4'-thiane]-5-carbonitrile]
52.7 µM | CCOc1ccccc1C1c2c(-c3ccccc3)noc2N=C(N)C1C#N (stereo not drawn) [6-amino-4-(2-ethoxyphenyl)-3-phenyl-2,4-dihydroisoxazolo[5,4-b]pyridine-5-carbonitrile]
83.7 µM | C/C(=C\c1ccco1)C1c2c(-c3ccccc3)n[nH]c2OC(=N)C1C#N (stereo not drawn) [6-amino-4-[(E)-1-(furan-2-yl)prop-1-en-2-yl]-3-phenyl-2,4-dihydropyrano[2,3-c]pyrazole-5-carbonitrile]
16.3 µM | Cc1ccc(-c2n[nH]c3c2C(C)C(C#N)C(=N)O3)cc1 (stereo not drawn) [6-amino-4-methyl-3-(4-methylphenyl)-2,4-dihydropyrano[2,3-c]pyrazole-5-carbonitrile]
55.7 µM | CCCc1[nH]nc2c1C(CCc1ccccc1)C(C#N)C(=N)O2 (stereo not drawn) [6-azanyl-4-(2-phenylethyl)-3-propyl-2,4-dihydropyrano[2,3-c]pyrazole-5-carbonitrile]
15.6 µM | CCOC(=O)C1C(=O)C(=Cc2ccc(OCC(=O)O)c(OCC)c2)SC1=Nc1ccc(C)cc1 (stereo not drawn) [(2-ethoxy-4-{[4-(ethoxycarbonyl)-5-[(4-methylphenyl)amino]-3-oxo-2(3H)-thienylidene]methyl}phenoxy)acetic acid]
2.23 µM | CC(C)(C)OC(=O)C1=[N+]2N[CH-]c3ccccc3C2C2(C(=O)c3ccccc3C2=O)[C@H]1c1ccc([N+](=O)[O-])cc1 (stereo partly drawn) [(2R,3R)-2-(4-nitrophenyl)-1',3'-dioxo-3-spiro[3,10b-dihydro-2H-pyrrolo[2,1-a]phthalazine-1,2'-indene]carboxylic acid tert-butyl ester]
66.4 µM | Cc1ccc(C2C(C(=O)c3ccc(Br)cc3)C(=O)C(=O)N2Cc2ccco2)o1 (stereo not drawn) [(4Z)-4-[(4-bromophenyl)-hydroxy-methylene]-1-(2-furfuryl)-5-(5-methyl-2-furyl)pyrrolidine-2,3-quinone]
